Our source for the Transcription activation degree, HDL-raising action and LDL-lowering action values is patent US20100267778A1, “Diphenyl ether compound, process for producing the same, and use” (priority 2003, published 2010).

Structures are written as SMILES.

For one experiment, the target named is T1, human PPAR δ (Homo sapiens, UniProt Q03181).
T1 construct: expressed in transfected cells; host or cells: CV-1 cells
T1 sequence (Q03181 139-441): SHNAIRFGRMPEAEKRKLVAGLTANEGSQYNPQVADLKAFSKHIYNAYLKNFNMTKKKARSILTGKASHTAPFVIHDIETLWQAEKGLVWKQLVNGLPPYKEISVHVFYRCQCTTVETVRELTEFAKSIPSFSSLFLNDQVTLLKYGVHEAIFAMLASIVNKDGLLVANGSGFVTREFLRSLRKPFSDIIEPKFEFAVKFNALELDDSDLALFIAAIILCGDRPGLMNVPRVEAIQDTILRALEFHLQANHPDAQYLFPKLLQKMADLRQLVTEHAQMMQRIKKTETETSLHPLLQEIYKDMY
Briefly: Luciferase assay using human PPAR δ (Gal4-PPAR δ ligand binding domain chimera, CV-1 cells). It is filed as cell-based. The following applies: relative value, carbacyclin at 30 μM defined as 1.

For experiment [1], the system named is Male mice (C57BL/6NCrj) loaded with a high-cholesterol feed. Briefly: Lowering action for cholesterol in blood and lipid in blood, mice loaded with high-cholesterol feed. It is filed as in vivo. The settings on record: relative value, medium group = 100%. How it is done: Lowering action for cholesterol in blood and lipid in blood:
Male mice of seven weeks age (C57BL/6NCrj) was loaded with a high-cholesterol feed (CRF-1 Solid Feed in which 5.5% of peanut oil, 1.5% of cholesterol and 0.5% of cholic acid were mixed; Oriental Bio Service) for six days, then body weight of the […] was measured under fasting and the following various parameter concentrations were measured. Measured items were LDL, HDL, TG value, NEFA and TC value. […] From the next day, a compound suspended in a medium (a 0.5% methyl cellulose solution) was compulsorily administered per os once daily for continuous six days and, at the same time, loading with the high cholesterol feed was continued as well. On the next day of the final administration (i.e., on the seventh day from the start of the administration), lipid levels in blood (TG, HDL, LDL, NEFA and TC values) were measured.
When the data were expressed as relative values where the value for the group to which a medium was administered was defined as 100%, a raising action for HDL and a lowering action for LDL of the compound produced in Example 9 (47) were as shown in Table 2.

[2] abbreviates: dose 3 mg/kg per os once daily for six days.
The mark [3] stands for this setting: dose 10 mg/kg per os once daily for six days.
Where [4] appears, read: dose 30 mg/kg per os once daily for six days.

Regarding `Cc1cc(Oc2ccc(C)cc2OCC#Cc2ccc(C(F)(F)F)cc2)cc(C(=O)O)c1` [Example 9 (47), 3-methyl-5-[4-methyl-2-({3-[4-(trifluoromethyl)phenyl]-2-propynyl}oxy)phenoxy]benzoic acid], the results for the Transcription activation degree on human PPAR δ (final concentration 0.1 μM), at human PPAR δ (final concentration 0.3 μM) and at human PPAR δ (final concentration 1.0 μM) were 0.73 Fold Increase, 1.09 Fold Increase and 1.02 Fold Increase, respectively. In addition, the results for the HDL-raising action in experiment [1] (setting [2]), in experiment [1] (setting [3]) and in experiment [1] (setting [4]) were 112.0%, 110.2% and 130.7%, respectively. Also, the LDL-lowering action was found to be 89.7% in experiment [1] (setting [2]), 85.3% in experiment [1] (setting [3]) and 84.4% in experiment [1] (setting [4]).
